The source of these data is patent US20260124278A1, “COMPOSITIONS AND METHODS FOR TREATMENT OF NEUROLOGICAL DISORDERS” (D&D Pharmatech Inc., priority 2022, published 2026).

For data set [1] the following is noted: in vivo; cited from earlier work.
The subject of the next data set is primary microglia. As to the kind of experiment: α-syn PFF induced microglial activation, cytokine mRNA by qPCR. The class given is cell-based, mouse. To be noted: agonist 2 μM, 150 nM PFF for 4 h. A general note: Real-time PCR tracks product formation cycle by cycle.
A further data set concerns FaSSIF/pancreatin. Briefly: in vitro stability against FaSSIF/pancreatin. The class given is in vitro ADME. To be noted: 0 min.
For the next data set, the system named is trypsin. Briefly: in vitro stability against trypsin. It is filed as in vitro ADME. The note with it: 0 min.

Procedure for primary microglia: Mouse microglia isolated from postnatal day 2 CD1 mouse brain were obtained from ScienCell Research Laboratories (M1900, Carlsbad, CA). […] Pre-condition: 24 hrs non-serum condition.
Total RNA from cultured cells was extracted with a RNA isolation kit (Qiagen, Valencia, CA, USA) following the instructions provided by the company. RNA concentration was measured spectrophotometrically using a NanoDrop 2000 (Biotek, Winooski, VT, USA). Subsequently, 1-2 μg of total RNA was reverse transcribed to cDNA using the High-Capacity cDNA Reverse Transcription System (Life Technologies, Grand Island, NY, USA). Comparative qPCR was performed in duplicate or triplicate for each sample using fast SYBR Green Master Mix (Life Technologies) and ViiA 7 Real-Time PCR System (Applied Biosystems, Foster City, CA, USA). The expression levels of target genes were normalized to the expression of Actb and calculated based on the comparative cycle threshold Ct method (2^−ΔΔCt).

One may read the half-life as how long it takes for the measured level to halve. With “NLY01: long-acting PEGylated form of exenatide”, in data set [1], the half-life is 88 h. For the same compound, the “α-syn PFF induced mRNA expression of TNF-α, IL-1α, IL-1β, C1q and IL-6” value with primary microglia is recorded as “significantly reduces”.
Turning to `CC[C@H](C)[C@H](NC(=O)[C@H](Cc1ccccc1)NC(=O)[C@H](CCC(=O)O)NC(=O)[C@H](CCCCNC(=O)COCCOCCNC(=O)COCCOCCNC(=O)CC[C@H](NC(=O)CCCCCCCCCCCCCCCCC(=O)O)C(=O)O)NC(=O)[C@H](C)NC(=O)[C@H](C)NC(=O)[C@H](CCC(N)=O)NC(=O)CNC(=O)[C@H](CCC(=O)O)NC(=O)[C@H](CC(C)C)NC(=O)[C@H](Cc1ccc(O)cc1)NC(=O)[C@H](CO)NC(=O)[C@H](CO)NC(=O)[C@@H](NC(=O)[C@H](CC(=O)O)NC(=O)[C@H](CO)NC(=O)[C@@H](NC(=O)[C@H](Cc1ccccc1)NC(=O)[C@@H](NC(=O)CNC(=O)[C@H](CCC(=O)O)NC(=O)C(C)(C)NC(=O)[C@@H](N)Cc1cnc[nH]1)[C@@H](C)O)[C@@H](C)O)C(C)C)C(=O)N[C@@H](C)C(=O)N[C@@H](Cc1c[nH]c2ccccc12)C(=O)N[C@@H](CC(C)C)C(=O)N[C@H](C(=O)N[C@@H](CCCNC(=N)N)C(=O)NCC(=O)N[C@@H](CCCNC(=N)N)C(=O)NCC(=O)O)C(C)C` [Semaglutide], the “Remaining amount (%) after FaSSIF/Pancreatin treatment” value in the data set with FaSSIF/pancreatin was 100.0%. Besides, the “Remaining amount (%) after trypsin treatment” value in the data set with trypsin is recorded as 100.0%.
